In PMC12122562, “Phase 1 studies of the indenoisoquinolines LMP776 and LMP744 in patients with solid tumors and lymphomas” (Cancer Chemotherapy and Pharmacology, 2025):

What was measured:
[1] = tested on: γH2AX; assay: qIF of paired tumor biopsies: nuclear γH2AX; type: in vivo, human
From the text: (§1) The LMP744 protocol collected pre-treatment (baseline) and on-treatment paired biopsies from patients in the expansion cohort. Core needle tumor biopsies (18-gauge) were collected and flash-frozen at point of collection per NCI SOPs (https://dctd.cancer.gov/ResearchResources/biomarkers/docs/par/SOP340507_Biopsy_Frozen.pdf) as described to preserve labile post-translational modifications such as phosphorylation. Biopsy pairs were thawed in formalin, fixed in paraffin embedded together with control tissues following NCI SOP340550 (https://dctd.cancer.gov/ResearchResources/biomarkers/DDR3/SOP340550_Biopsy_Section_Testis_Jejunum_Controls.pdf). TOP1 and TOP1cc were measured with a cocktail containing custom-conjugated rabbit monoclonal antibody anti-TOP1-DIG (Abcam, EPR5376 (2)) and mouse monoclonal antibody anti-TOP1cc (clone 1.1A [34, 35], EMD Millipore) that were detected with reporter secondary antibodies AlexaFluor-647 IgG fraction monoclonal mouse anti-digoxin (Jackson ImmunoResearch) and goat/anti-mouse AlexaFluor-488, respectively. Phosphorylated KAP1 (pKAP1, phosphorylated at S824) was measured using custom-conjugated pKAP1-pS824-DNP (Abcam, EPR5248) and detected with AlexaFluor-488 conjugated with anti-dinitrophenyl-KLH rabbit IgG Antibody Fraction (DNP-488, ThermoFisher). […] TOP1, γH2AX, pNBS1, and pKAP1 were measured as the percentage of DAPI-stained tumor cell nuclear area that was positive for the biomarker (% NAP); RAD51 [19] and TOP1cc was measured as a function of the percentage of nuclei with ≥ 5 foci (RAD51) or ≥ 19 foci (TOP1cc). Apoptosis was measured using a validated IFA of tumor cells positive for both cCasp3 blebbing in the cytoplasm and γH2AX in the nucleus. Anti-SLFN11 rabbit monoclonal antibody (Cell Signaling Technology, clone D8W1B) was detected by immunohistochemistry (IHC) using Bond Polymer Detection kit (Leica) and scanned in 20X widefield Aperio (Leica), and the distribution of staining intensity of tumor cell nuclei graded as 0, 1 + , 2 + or 3 + was converted into an H-score. […]

[2] = tested on: pKAP1; assay: qIF of paired tumor biopsies: nuclear pKAP1; type: in vivo, human; settings: 6 patients at MTD, C1D2
From the text: The LMP744 protocol collected pre-treatment (baseline) and on-treatment paired biopsies from patients in the expansion cohort. Core needle tumor biopsies (18-gauge) were collected and flash-frozen at point of collection per NCI SOPs (https://dctd.cancer.gov/ResearchResources/biomarkers/docs/par/SOP340507_Biopsy_Frozen.pdf) as described to preserve labile post-translational modifications such as phosphorylation. Biopsy pairs were thawed in formalin, fixed in paraffin embedded together with control tissues following NCI SOP340550 (https://dctd.cancer.gov/ResearchResources/biomarkers/DDR3/SOP340550_Biopsy_Section_Testis_Jejunum_Controls.pdf). TOP1 and TOP1cc were measured with a cocktail containing custom-conjugated rabbit monoclonal antibody anti-TOP1-DIG (Abcam, EPR5376 (2)) and mouse monoclonal antibody anti-TOP1cc (clone 1.1A [34, 35], EMD Millipore) that were detected with reporter secondary antibodies AlexaFluor-647 IgG fraction monoclonal mouse anti-digoxin (Jackson ImmunoResearch) and goat/anti-mouse AlexaFluor-488, respectively. Phosphorylated KAP1 (pKAP1, phosphorylated at S824) was measured using custom-conjugated pKAP1-pS824-DNP (Abcam, EPR5248) and detected with AlexaFluor-488 conjugated with anti-dinitrophenyl-KLH rabbit IgG Antibody Fraction (DNP-488, ThermoFisher). […]

[3] = target: T1, TOP1 (Homo sapiens, UniProt P11387); assay: qIF of paired tumor biopsies: nuclear TOP1; type: in vivo
T1 construct: paired pre-treatment and on-treatment tumor biopsies (C1D2, 2–4 h after dosing) from 6 patients receiving LMP744 at the MTD; from tissue; host or cells: core needle tumor biopsies from patients (LMP744 expansion cohort)
T1 sequence (P11387 1-765): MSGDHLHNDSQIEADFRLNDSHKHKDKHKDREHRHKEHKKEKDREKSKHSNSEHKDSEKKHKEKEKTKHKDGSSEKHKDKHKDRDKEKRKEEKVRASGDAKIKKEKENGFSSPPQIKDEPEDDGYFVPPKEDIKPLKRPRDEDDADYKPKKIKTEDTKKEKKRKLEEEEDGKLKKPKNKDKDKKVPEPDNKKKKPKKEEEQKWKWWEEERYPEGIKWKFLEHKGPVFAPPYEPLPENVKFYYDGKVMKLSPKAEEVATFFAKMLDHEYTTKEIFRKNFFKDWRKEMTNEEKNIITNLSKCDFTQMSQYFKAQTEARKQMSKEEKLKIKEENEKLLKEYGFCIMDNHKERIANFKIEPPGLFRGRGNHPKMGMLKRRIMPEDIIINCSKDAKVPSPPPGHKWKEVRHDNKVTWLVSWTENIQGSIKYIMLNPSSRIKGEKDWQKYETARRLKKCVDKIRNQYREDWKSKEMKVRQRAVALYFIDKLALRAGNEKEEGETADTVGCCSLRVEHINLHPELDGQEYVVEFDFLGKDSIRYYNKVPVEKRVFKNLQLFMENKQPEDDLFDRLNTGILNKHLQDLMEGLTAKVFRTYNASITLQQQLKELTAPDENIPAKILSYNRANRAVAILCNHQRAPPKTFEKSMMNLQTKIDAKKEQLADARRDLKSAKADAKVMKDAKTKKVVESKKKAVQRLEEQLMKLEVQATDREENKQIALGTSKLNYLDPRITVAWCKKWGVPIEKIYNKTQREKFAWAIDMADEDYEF
From the text: as §1, with “ThermoFisher). Validated immunofluorescence assays (IFAs) were used to measure levels of γH2AX, phosphorylated NBS1 (pNBS1, phosphorylated at Ser343), and RAD51 [15, 17, 19, 29]. Antibodies in all clinical immunofluorescence staining protocols were used as a cocktail with β-catenin as a tumor marker as previously described. After staining with primary antibodies, washing, and staining with secondary antibodies, slides were rinsed in 1X PBS and blotted to remove excess liquid. Slides were cured overnight with Prolong Gold Antifade Reagent (Invitrogen) in the dark and imaged the following day. Confocal images (12-bit) were acquired at 20X using a Nikon A1 scan head on a Nikon 90i microscope at 0.24 µm/pixel to measure nuclear TOP1 and nuclear foci of TOP1cc and RAD51.” for “ThermoFisher).”

COc1cc2c3c(n(CCCNCCO)c(=O)c2cc1OC)-c1cc2c(cc1C3=O)OCO2 [LMP744]
γH2AX, cohort mean treatment effect ([1]; 6 patients at MTD, P = 0.1715): overall lack of treatment effect within the cohort
Nuclear γH2AX in tumor cells on treatment ([1]; patient 29 (SCLC, cPR) only, MTD, C1D2 2–4 h after dosing): above 4 % NAP
Pharmacodynamic responses in tumor biopsies ([1]; patient with cPR): increased RAD51, phosphorylated KAP1 (pKAP1), γH2AX, and cleaved caspase-3 (cCasp3)
Nuclear pKAP1 [2]: increased only in patient 29
Nuclear TOP1, change in the biopsy cohort ([3]; 6 patients at MTD, P = 0.1448): no significant changes
Nuclear TOP1 ([3]; patient 29, MTD, C1D2): neither biomarker changed with treatment
Nuclear TOP1 ([3]; patient 31, MTD, C1D2): decreased nearly to background levels
Decrease of nuclear TOP1 ([3]; patient 33, MTD, C1D2): 57%
